# In article PMC9139979, “Features of ZED1227: The First-In-Class Tissue Transglutaminase Inhibitor Undergoing Clinical Evaluation for the Treatment of Celiac Disease” (Cells, 2022):
# Entries after “also recorded” stand apart in the source; their conditions may differ.
# How the values were obtained:
# hTG1 = molecular target: T1, hTG1 (Homo sapiens, UniProt P22735); assay: Fluorescent transamidation assay (DCC-assay), hTG1; assay type: biochemical
# T1 construct: purchased Zedira T035
# T1 sequence (P22735 1-817): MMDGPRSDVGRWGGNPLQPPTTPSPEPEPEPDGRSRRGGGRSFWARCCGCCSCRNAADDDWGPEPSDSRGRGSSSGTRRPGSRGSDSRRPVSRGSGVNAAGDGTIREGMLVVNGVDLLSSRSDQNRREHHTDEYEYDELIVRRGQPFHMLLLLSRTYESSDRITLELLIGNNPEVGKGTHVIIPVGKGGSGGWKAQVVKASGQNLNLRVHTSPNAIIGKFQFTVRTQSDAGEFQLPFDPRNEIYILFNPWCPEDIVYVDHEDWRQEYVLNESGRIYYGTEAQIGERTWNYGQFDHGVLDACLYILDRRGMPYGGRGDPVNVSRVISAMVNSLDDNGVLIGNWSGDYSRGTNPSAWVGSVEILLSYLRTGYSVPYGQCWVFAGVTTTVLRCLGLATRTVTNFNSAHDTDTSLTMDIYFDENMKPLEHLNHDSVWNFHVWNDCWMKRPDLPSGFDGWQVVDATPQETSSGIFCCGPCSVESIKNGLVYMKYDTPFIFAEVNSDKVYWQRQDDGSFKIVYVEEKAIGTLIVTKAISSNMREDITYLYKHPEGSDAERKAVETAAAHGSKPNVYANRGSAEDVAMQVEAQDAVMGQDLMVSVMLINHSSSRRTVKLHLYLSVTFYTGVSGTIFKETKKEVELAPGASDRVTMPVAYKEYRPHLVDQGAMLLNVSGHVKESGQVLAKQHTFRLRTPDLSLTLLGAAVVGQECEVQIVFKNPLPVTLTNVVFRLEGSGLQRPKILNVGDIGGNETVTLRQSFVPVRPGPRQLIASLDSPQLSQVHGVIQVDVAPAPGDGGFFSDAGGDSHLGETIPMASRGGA
# Procedure: Inhibition data were determined using the fluorescent transamidation assay (dansylcadaverine incorporation into glutamine-donor substrate N,N-dimethyl casein, DCC-assay). Briefly, to 15 μL of ZED1227 solution (dissolved and serial diluted in 2% (v/v) DMSO/assay buffer), 285 μL assay buffer [47.5 mM tris(hydroxymethyl)aminomethane, 9.5 mM CaCl2, 9.5 mM glutathione, 2.4% (v/v) glycerol, 190 mM NaCl, pH 8.0] containing dansylcadaverine (15.9 μM), N,N-dimethyl casein (3.8 μM) and the indicated recombinant transglutaminase enzyme [0.95 μg/mL hTG1 (T035), 0.81 μg/mL hTG2 (T022), 0.83 μg/mL hTG6 (T021), all from Zedira] were added, mixed and the kinetic measurement started immediately. […]
# Fluorescence emission was continuously monitored for 30 min at λem = 500 nm (λex = 330 nm) and 37 °C using a CLARIOstar fluorescence plate reader (BMG Labtech, Ortenberg, Germany). […] The respective IC50 (and IC90 for TG2) values were calculated by non-linear regression using the MARS software package (BMG Labtech). […]
# To facilitate comparability during lead structure optimization and to roughly estimate concentrations needed at the target site, the apparent IC50 values (calculated by four-parameter non-linear fit by MARS software) for irreversible inhibitors are more instructive and are therefore reported. […]
# Huh7 cells = assay: BrdU cell proliferation ELISA, Huh7; assay type: cell-based, human; conditions: up to 1,000 μM, 24 h + 24 h
# Procedure: Cytotoxicological analysis of ZED1227 was performed using Huh7 (human liver carcinoma, CLS Cell Lines Service GmbH, Eppelheim, Germany) and Caco-2 cells (human epithelial colorectal adenocarcinoma, Sigma Aldrich, Taufkirchen, Germany) with respect to the effect on proliferation and viability, according to the assay protocols provided by the manufacturers of the respective kits. The Cell Proliferation ELISA (BrdU, colorimetric) was purchased from Roche (Mannheim, Germany), whereas the Cell Proliferation and Cytotoxicity Assay EZ4U was purchased from Biomedica (Vienna, Austria). Briefly, Caco-2 cells (in MEM with 1% non-essential amino acid solution, both Sigma Aldrich (Taufkirchen, Germany), 10% fetal bovine serum, 2 mM L-glutamine, 100 U/mL penicillin–streptomycin, all from Gibco) or Huh7 cells (in DMEM low glucose, Sigma Aldrich (Taufkirchen, Germany), 10% fetal bovine serum, 1 mM sodium pyruvate, 100 U/mL penicillin–streptomycin, all from Gibco) were cultured in 96 well plates, using 2.5 μg/mL cycloheximide and 0.2 μg/mL camptothecin-treated cells as positive control. In the 5-bromo-2′-deoxyuridine (BrdU) assay (determination of cell proliferation), the cells were incubated with ZED1227 working solution (1% DMSO in culture medium) up to a concentration of 1,000 μM for 24 h, followed by addition of BrdU into the culture medium and further culturing for 24 h. […]
compound,measurement,setting,value
"CCC(CC)CNC(=O)Cn1cccc(NC(=O)[C@H](CC/C=C/C(=O)OC)NC(=O)c2cncn2C)c1=O [ZED1227, (S,E)-Methyl 7-(1-(2-(2-ethylbutylamino)-2-oxoethyl)-2-oxo-1,2-dihydropyridin-3-ylamino)-6-(1-methyl-1H-imidazole-5-carboxamido)-7-oxohept-2-enoate]",Selectivity hTG1 versus hTG2,hTG1; ratio of app. IC50 values,469 fold
same,IC50,"hTG1; recombinant, transamidation assay, read-out: App. IC50 hTG1",24.9 µM
same,"Cytotoxicity: Proliferation, Huh7 cells",Huh7 cells,"nor did it affect cell proliferation rates; also recorded: no effect up to 1,000 μM no effect up to 1,000 μM no effect up to 1,000 μM no effect up to 1,000 μM"
